Measured values as given in ChEMBL document CHEMBL1201862, “PubChem BioAssay data set” (2004).
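Compound exposure: 48 hours, 5 concentrations, 96-well plates. At the GI50, growth is halved.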 The source made the active and inactive calls. No stated cut-off is given here; in the data, active = GI50 up to about 1.1 µM and inactive = higher.

Key:
Assay in all cases: inhibition of tumour cell growth, NCI panel, 48 h
DLD-1 = tested on: DLD-1
DMS-114 = tested on: DMS-114
LXFL 529 = tested on: LXFL 529
M19-MEL = tested on: M19-MEL
RXF 631 = tested on: RXF 631
XF498 = tested on: XF498
DMS-273 = tested on: DMS-273
HOP-18 = tested on: HOP-18
SNB-78 = tested on: SNB-78

Compound	GI50 (DLD-1)	GI50 (DMS-114)	GI50 (LXFL 529)	GI50 (M19-MEL)	GI50 (RXF 631)	GI50 (XF498)	GI50 (DMS-273)	GI50 (HOP-18)	GI50 (SNB-78)
O=C(N/N=C/c1cc(-c2ccccc2Cl)c(-c2ccccc2Cl)o1)c1ccncc1	> 100 µM (inactive)	87.9 µM (inactive)	96.6 µM (inactive)	> 100 µM (inactive)	> 100 µM (inactive)	> 100 µM (inactive)			
CC(C)(C)c1cc2ccc(C(N)=O)cc2c(=O)[nH]1	> 100 µM (inactive)	> 100 µM (inactive)	> 100 µM (inactive)	> 100 µM (inactive)	> 100 µM (inactive)		> 100 µM (inactive)	> 100 µM (inactive)	> 100 µM (inactive)
COc1c(C(C)C)cc2c3c1OC(=O)[C@@]31CCCC(C)(C)C1CC2 (some centres undefined)	69.8 µM (inactive)		16.6 µM (inactive)	23.6 µM (inactive)			23.4 µM (inactive)		23.3 µM (inactive)
OCC1OC(n2cnc3c2NC=NC[C@H]3O)CC1O (some centres undefined)	494 µM (inactive)	426 µM (inactive)	> 500 µM (inactive)	354 µM (inactive)		442 µM (inactive)	489 µM (inactive)		483 µM (inactive)
COc1cccc2c1C(=O)c1c(O)c3c(c(O)c1C2=O)C[C@@](O)(C(=O)CO)C[C@@H]3OC1CC(N2CCOCC2C#N)C(O)C(C)O1 (some centres undefined)	2.26e-05 µM (active)		0.001 µM (active)		8.24e-05 µM (active)		1.93e-05 µM (active)	0.0025 µM (active)	0.0025 µM (active)
CC(=O)Nc1ccc(C2CC(c3ccc([N+](=O)[O-])cc3)=Nc3ccccc3[S+]2[O-])cc1 (centres undefined)	15.9 µM (inactive)	21.2 µM (inactive)	16.7 µM (inactive)	15.2 µM (inactive)	> 10 µM (inactive)	24.2 µM (inactive)	13.6 µM (inactive)	27.2 µM (inactive)	
CCC1(C)NN=c2s/c(=C/c3ccc(OC)cc3)c(=O)n2N1 (centres undefined)	> 100 µM (inactive)		> 100 µM (inactive)			> 100 µM (inactive)	> 100 µM (inactive)		> 100 µM (inactive)
CCCCCCC(=O)OC[n+]1ccc2c(C)c3[nH]c4ccc(OC)cc4c3c(C)c2c1	0.092 µM (active)	0.522 µM (active)	0.133 µM (active)	0.953 µM (active)	0.455 µM (active)		0.029 µM (active)		1.06 µM (active)
COc1ccc(S(=O)(=O)NC(C)C(=O)O)cc1 (centres undefined)	> 100 µM (inactive)		> 100 µM (inactive)	> 100 µM (inactive)		21.9 µM (inactive)	> 100 µM (inactive)	> 100 µM (inactive)	
C[C@]12CCC3[C@@H](CCC45OC4C(=O)CC[C@]35C)C1Cc1cnn(-c3ccc(F)cc3)c1N2 (some centres undefined)		19.4 µM (inactive)	32.8 µM (inactive)	34.3 µM (inactive)		31.8 µM (inactive)	18.8 µM (inactive)	37 µM (inactive)	25.6 µM (inactive)
CCCN(CCC)CCc1cc(C(C)=O)n(S(=O)(=O)c2ccc(C)cc2)c1	> 100 µM (inactive)	> 100 µM (inactive)	> 100 µM (inactive)	> 100 µM (inactive)			> 100 µM (inactive)	> 100 µM (inactive)	> 100 µM (inactive)
O=c1c2cccc3cccc(c4n1CCN=4)c32	52.5 µM (inactive)	> 100 µM (inactive)	> 100 µM (inactive)	> 100 µM (inactive)		> 100 µM (inactive)	97.7 µM (inactive)	> 100 µM (inactive)	> 100 µM (inactive)
COC(=O)/C(Cl)=C1/CC1COCc1ccccc1 (centres undefined)	20.4 µM (inactive)	28.8 µM (inactive)	17.1 µM (inactive)	33.3 µM (inactive)		26.4 µM (inactive)	20.7 µM (inactive)		45.9 µM (inactive)
Cn1c(=O)nc2n(-c3ccc(Cl)c(C(F)(F)F)c3)c3ccccc3nc-2c1=O	20.1 µM (inactive)	16.7 µM (inactive)	76.9 µM (inactive)	13.4 µM (inactive)		37.2 µM (inactive)	32.1 µM (inactive)	> 100 µM (inactive)	53.6 µM (inactive)
CCOc1ccc2c(c1)[n+]([O-])c(-c1ccccc1)c(N)[n+]2[O-]	> 100 µM (inactive)	34.9 µM (inactive)	46.6 µM (inactive)	62.4 µM (inactive)		> 100 µM (inactive)	77.1 µM (inactive)	53.6 µM (inactive)	
Nc1ccc(C(=O)NN2C(=O)C(Cl)C2c2cccc([N+](=O)[O-])c2)cc1 (centres undefined)	17.9 µM (inactive)	18.7 µM (inactive)	20 µM (inactive)	19.8 µM (inactive)		13.2 µM (inactive)	16 µM (inactive)		63.2 µM (inactive)
CCCCCCCCCCCCN(O)C(=O)c1ccccc1	26.4 µM (inactive)		30.5 µM (inactive)	37.8 µM (inactive)		21.6 µM (inactive)		62.1 µM (inactive)	
Clc1ccc(C2=NN(c3ccccc3)C3c4cc(Br)ccc4OCC23)cc1 (centres undefined)	> 100 µM (inactive)	86.1 µM (inactive)	72.1 µM (inactive)	> 100 µM (inactive)	> 100 µM (inactive)	66.2 µM (inactive)	> 100 µM (inactive)	> 100 µM (inactive)	> 100 µM (inactive)
CCC12CCCC(=O)N1C(CO)C(c1ccccc1)O2 (centres undefined)	> 100 µM (inactive)	38 µM (inactive)		> 100 µM (inactive)		> 100 µM (inactive)	> 100 µM (inactive)	> 100 µM (inactive)	> 100 µM (inactive)
O=C1C(Cl)C(c2ccc([N+](=O)[O-])cc2)N1n1cnc2ccccc2c1=O (centres undefined)	53.1 µM (inactive)	20.2 µM (inactive)	22.7 µM (inactive)			64.9 µM (inactive)	34.5 µM (inactive)	40.6 µM (inactive)	24.1 µM (inactive)
COC(=O)C(C(=O)C(=O)Nc1cccc(OC)c1)c1cnc2ccccc2n1 (centres undefined)	> 100 µM (inactive)	> 100 µM (inactive)	> 100 µM (inactive)		> 100 µM (inactive)	> 100 µM (inactive)	> 100 µM (inactive)	> 100 µM (inactive)	> 100 µM (inactive)
N#CC(N)(C(=O)CCC(=O)Nc1cccc(Cl)c1)c1ccc(Cl)cc1 (centres undefined)	> 100 µM (inactive)	> 100 µM (inactive)	> 100 µM (inactive)	> 100 µM (inactive)		> 100 µM (inactive)	> 100 µM (inactive)	> 100 µM (inactive)	> 100 µM (inactive)
CCOP(=O)(OCC)C1CC(C)OC1=O (centres undefined)	> 100 µM (inactive)	> 100 µM (inactive)	> 100 µM (inactive)	> 100 µM (inactive)	> 100 µM (inactive)	> 100 µM (inactive)	> 100 µM (inactive)		> 100 µM (inactive)
COc1ccc(CC2=NCCc3cc(OC)c(OC)cc32)cc1Br	19.1 µM (inactive)	10.2 µM (inactive)	7.36 µM (inactive)	27.5 µM (inactive)		22.8 µM (inactive)	12.7 µM (inactive)	> 100 µM (inactive)	58.1 µM (inactive)
